Patent US4097599A, “Triazoles” (Commonwealth Scientific and Industrial Research Organization, priority 1973, dated 1978)
≈ marks a conversion by molar mass, not a printed value. Where two headings read alike, the source gives them in different places.

Key:
yeast mitochondria = assay: Oxidative phosphorylation in yeast mitochondria (uncoupling, State 3 respiration); type: biochemical, yeast (Saccharomyces cerevisiae)
From the text: (§1) Other biochemical tests carried out with the compounds were the measurement of their effects on the uncoupling of oxidative phosphorylation and the inhibition of energy transfer in the mitochondrial respiration sequences. In the light of a known report on the action of certain acaricides as monoamine oxidase (MAO) inhibitors, the new structures were also examined in this test, and their activity compared to the reported MAO inhibition shown by the potent acaricide N-(2,4-dimethylphenyl)-N'-methyl formamidine (BTS 27271).
Yeast mitochondria were prepared as described by Watson, K. et al.^4. The effects of anti-metabolites on oxidative phosphorylation were determined in a polarograph cell at 30° in the medium described by Haslam, J. M. et al.^5. Substrates were either succinate (4.0 mM) or ethanol (0.3M). Other additions, where indicated, were Sigma ADP and 2:4-dinitrophenol (DNP).
(§2) State 3 and state 4 respiration rates were determined by the method of Chance, B. et al.^9. Percentage uncoupling in the presence of antimetabolities was calculated from the equation [formula] Percentage inhibition of coupled respiration was calculated from the equation [formula] Relative uncoupling and n-octylguanidine like effects are compared as the concentrations required to give 50% effects (I50).

[1] = tested on: rat liver monoamine oxidase; assay: Inhibition of rat liver monoamine oxidase; type: biochemical; conditions: for Relative inhibition of rat liver monoamine oxidase: relative to I50 value of BTS 27271 = 100
From the text: as §1
Purified intact rat liver mitochondria were disrupted by treating with triton X-100 (1% w/v) for 20 mins. at 0°-4°. The MAO activity was measured spectrophotometrically at 360 nm as described by Weissbach, H. et al. ^10. The activity of BTS 27271 was determined by this method and the enzyme inhibition for other compounds was expressed relative to its I50 value.

[2] = tested on: oxidative phosphorylation in rat liver mitochondria; assay: Oxidative phosphorylation in rat liver mitochondria (uncoupling, State 3 respiration); type: biochemical; conditions: for EC50: concentration for 50% effect, read-out: Uncoupling activity of oxidative phosphorylation in rat liver mitochondria, I50
From the text: as §1
Rat liver mitochondria were prepared by the method described by Hogeboon^6 in a medium containing 0.25 M sucrose; 10 mM tris-HCl (pH 7.40); 0.5 mM EDTA and finally suspended in the same medium plus bovine-serum albumin (2 mg/ml). Oxidative phosphorylation was measured polarographically at 30°, as described by Estabrook, R. W. et al.^7. The incubation medium contained 0.25 M sucrose; 10 mM tris-HCl (pH 7.4); 5 mM K2 HPO4 (pH 7.4); 0.5 mM EDTA and bovine-serum albumin (2 mg/ml). DNP was added and control tests were carried out using n-octyl guanidine ^8 and either pyruvate or succinate as substrates.
as §2

[3] = tested on: Boophilus microplus larvae; assay: Acaricide testing: toxicity to Boophilus microplus larvae; type: in vivo, Boophilus microplus (cattle tick); conditions: 7-14 day old larvae, packets, 24 hours
Method: (§3) The new compounds were examined in several biological tests. The acaricidal activity was measured against the larvae of the Australian cattle tick (Boophilus microplus). The specificity of interference of the designed compounds with mitochondrial oxidative processes was examined by the differential inhibition of growth of Saccharomyces cerevisiae with ethanol or glucose as substrates.
The determinations of mortalities were carried out in packets on 7-14 day old larvae of the cattle tick Boophilus microplus using the method described by Stone^1. Mortalities were counted 24 hours after the application of the compounds. The activities of DDT and BTS 27271 were also determined.

Saccharomyces cerevisiae = assay: Inhibition of the growth of Saccharomyces cerevisiae on two substrates; type: cell-based, Saccharomyces cerevisiae strain L410; conditions: 24 hours
Method: as §3
Saccharamyces cerevisiae, strain L410, was grown aerobically at 28° in a salts medium containing 1% Difco yeast extract and 0.5% bacteriological peptone as described by Wallace, P. G. et al.^2 with either ethanol (1% w/v) or glucose (5% w/v) as carbon and energy sources. Cells were innoculated at a concentration of 10 μg of dry weight per ml and grown for 24 hours. Growth was measured as described by Clark-Walker et al.^3, and compared with control incubations.

Tetranychus urticae = assay: Activity against the two-spotted spider mite on discs of dwarf bean leaf; type: in vivo; conditions: read-out: LC50, Tetranychus urticae
Method: Compounds of the invention were tested for their activity against the two-spotted spider mite, Tetranychus urticae. In this test, discs of dwarf bean leaf were treated with varying known amounts of the test compound. On each disc, 15 mites were placed and the sample kept under cover. Mortalities were determined after 24 hours and compared with […] controls.

[4] = ethanol substrate, read-out: Inhibition of the growth of Saccharomyces cerevisiae, ethanol, I50
[5] = glucose substrate, read-out: Inhibition of the growth of Saccharomyces cerevisiae, glucose, I50

Compound	Relative inhibition of rat liver monoamine oxidase [1]	LC50, toxicity to Boophilus microplus larvae [3]	IC50 (Saccharomyces cerevisiae; [4])	further results
FC(F)(F)c1n[nH]c(-c2ccccc2)n1 [20(c), 3(5)-phenyl-5(3)-trifluoromethyl-1,2,4-triazole]	0	0.60%	300 µM	Uncoupling activity in yeast mitochondrial preparations (result in words) (yeast mitochondria): high uncoupling activity; EC50 [2]: 80 µM; Uncoupling activity in rat liver mitochondrial preparations (result in words) [2]: high uncoupling activity; IC50 (Saccharomyces cerevisiae; [5]): 1000 µM
Clc1ccc(C(c2ccc(Cl)cc2)C(Cl)(Cl)Cl)cc1 [DDT, reference compound]	–	0.78%	–	LC50 (Tetranychus urticae; 24 h): > 20000 µg/mL
Cc1ccc(-n2cnnc2C(F)(F)F)c(C)c1 [Example 9, 4-(2,4-Dimethylphenyl)-3-trifluoromethyl-1,2,4-triazole]	–	1.55%	–	–
FC(F)(F)c1nncn1-c1ccc(Cl)cc1 [Example 3, 4-(4-chlorophenyl)-3-trifluoromethyl-1,2,4-triazole]	2	0.60%	2500 µM	–
FC(F)(F)c1ncn(-c2ccccc2)n1 [Example 13, 1-phenyl-3-trifluoromethyl-1,2,4-triazole]	400	2.75%	–	Inhibition of rat liver monoamine oxidase (result in words) [1]: potent inhibition; Inhibition of rat liver monoamine oxidase compared with BTS 27271 ([1]; times that determined for BTS 27271 in a similar test): four times
FC(F)(F)c1n[nH]c(-c2ccc(Cl)c(Cl)c2)n1 [20(e), 3(5)-(3,4-dichlorophenyl)-5(3)-trifluoromethyl-1,2,4-triazole]	42	0.38%	10 µM	Uncoupling activity in yeast mitochondrial preparations (result in words) (yeast mitochondria): high uncoupling activity; Inhibition of rat liver monoamine oxidase (result in words) [1]: potent inhibition; EC50 [2]: 2.3 µM; Uncoupling activity in rat liver mitochondrial preparations (result in words) [2]: high uncoupling activity; IC50 (Saccharomyces cerevisiae; [5]): 300 µM
FC(F)(F)c1n[nH]c(-c2ccc(Cl)cc2)n1 [20(d), 3(5)-(4-chlorophenyl)-5(3)-trifluoromethyl-1,2,4-triazole]	27	0.45%	30 µM	Uncoupling activity in yeast mitochondrial preparations (result in words) (yeast mitochondria): high uncoupling activity; Inhibition of rat liver monoamine oxidase (result in words) [1]: potent inhibition; EC50 [2]: 12 µM; Uncoupling activity in rat liver mitochondrial preparations (result in words) [2]: high uncoupling activity; IC50 (Saccharomyces cerevisiae; [5]): 300 µM
Cc1ccccc1-n1cnnc1C(F)(F)F [Example 4, 4-(2-methylphenyl)-3-trifluoromethyl-1,2,4-triazole]	2.5	0.52%	–	–
Cc1cc(Cl)ccc1-n1cnnc1C(F)(F)F [Example 10, 4-(4-Chloro-2-methylphenyl)-3-trifluoromethyl-1,2,4-triazole]	–	0.87%	–	–
FC(F)(F)c1nncn1-c1ccccc1 [Example 1, 4-Phenyl-3-trifluoromethyl-1,2,4-triazole]	0	0.62%	2500 µM	–
CC(C)(C)c1ccccc1-n1cnnc1C(F)(F)F [Example 5, 4-(2-t-butylphenyl)-3-trifluoromethyl-1,2,4-triazole]	0	2.16%	100 µM	IC50 (yeast mitochondria; yeast mitochondria, read-out: Half-maximal effect on State 3 respiration by yeast mitochondria): 160 µM
CC(C)(C)c1ccc(-n2cnnc2C(F)(F)F)cc1 [Example 8, 4-(4-t-butylphenyl)-3-trifluoromethyl-1,2,4-triazole]	1	1.8%	–	–
CCOc1ccc(-n2cnnc2C(F)(F)F)cc1 [Example 7, 4-(4-ethoxyphenyl)-3trifluoromethyl-1,2,4-triazole]	2.5	0.61%	–	LC50 (Tetranychus urticae; discs of dwarf bean leaf, 24 hours): 1400 µg/mL (≈ 5.44 mM)
COc1ccccc1-n1cnnc1C(F)(F)F [Example 6, 4-(2-methoxyphenyl)-3-trifluoromethyl-1,2,4-triazole]	5	0.38%	–	–
CN=CNc1ccc(C)cc1C [BTS 27271, N-(2,4-dimethylphenyl)-N'-methyl formamidine, reference compound]	100	0.2%	–	–
FC(F)(F)c1nc[nH]n1 [Example 16, 3-trifluoromethyl-1,2,4-triazole]	0	0.50%	–	–
FC(F)(F)c1nnc(-c2ccc(Cl)cc2)n1-c1ccc(Cl)cc1 [Example 12, 3,4-bis(4-chlorophenyl)-5-trifluoromethyl-1,2,4-triazole]	200	> 1%	–	Inhibition of rat liver monoamine oxidase (result in words) [1]: potent inhibition
Cc1nnc(C(F)(F)F)n1-c1ccccc1 [Example 11, 3-Methyl-4-phenyl-5-trifluoromethyl-1,2,4-triazole]	2	0.50%	–	–
